Data: publication PMC12123458, “Unraveling Small Molecule-Mediated Sirtuin 3 Activation at a Distinct Binding Site for Cardioprotective Therapies” (ACS Central Science, 2025)
Where a chain is given by its changes, count along the chain named. pKd: −log10 of the molar value.

Legend:
SIRT3 L298G mutant = target: T1, SIRT3 L298G mutant (Homo sapiens, UniProt Q9NTG7, L298G); test: BLI binding of SKLB-11A to mutant SIRT3 (L298G); settings: read-out: dissociation constant, L298G mutant SIRT3
T1 construct: made in house
T1 sequence (Q9NTG7 1-399 L298G): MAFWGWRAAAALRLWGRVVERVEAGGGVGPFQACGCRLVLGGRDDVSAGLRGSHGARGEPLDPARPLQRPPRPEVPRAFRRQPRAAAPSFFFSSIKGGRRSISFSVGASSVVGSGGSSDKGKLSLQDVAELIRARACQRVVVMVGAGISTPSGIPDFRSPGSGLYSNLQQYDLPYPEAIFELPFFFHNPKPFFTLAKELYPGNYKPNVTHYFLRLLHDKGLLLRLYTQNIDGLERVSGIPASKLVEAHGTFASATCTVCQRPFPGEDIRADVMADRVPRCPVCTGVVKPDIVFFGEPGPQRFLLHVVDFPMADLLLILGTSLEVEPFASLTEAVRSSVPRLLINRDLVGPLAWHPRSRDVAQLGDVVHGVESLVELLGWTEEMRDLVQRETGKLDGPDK
Description: SIRT3 protein at a concentration of 10 mg/mL was incubated with SKLB-11A (200 mM) in a mole ratio of 1:5 on ice for 1–3 h. The mixture was then centrifuged at 4 °C for 10 min, and the supernatant was used for crystallization. The precipitant solution consisted of 0.2 M Li2SO4, 1.0 M (NH4)2SO4, and 0.1 M Tris, at pH 7.5. Crystals emerged after approximately 3 days at 16 °C on a sitting-drop plate. The crystals were subsequently transferred to a cryoprotectant solution containing 20% glycerol and were flash-cooled in a nitrogen gas stream at 100 K for synchrotron radiation X-ray diffraction data collection. Site-directed mutagenesis. L298G Primer forward: 5′-[…]-GAACCGggc[…][…]-3′; reverse: 5′-gccCGGTT[…]-AAAACGA-3′; Site-directed mutagenesis was conducted using 2 x Phanta Flash Master Mix (Vazyme, P510). The mutated plasmid was sequenced by Sangon Biotech (Shanghai, China).
Binding kinetics of SIRT3 with various compounds were quantified using SSA biosensors on an Octet Red96 system (ForteBio). The assays occurred in 96-well plates, recording wavelength shifts in real-time. Ambient temperature was maintained at 25 °C, with plate agitation at 1000 rpm, and a reaction volume of 200 μL per well. SIRT3 protein and test compounds were prepared in phosphate-buffered saline (PBS, pH 7.4). […]

wild-type SIRT3 = target: T2, wild-type SIRT3 (Homo sapiens, UniProt Q9NTG7); test: BLI binding of SKLB-11A to wild-type SIRT3; settings: read-out: dissociation constant, wild-type SIRT3
T2 sequence (Q9NTG7 1-399): T1 sequence (Q9NTG7 1-399 L298G) with G298L
Description: Binding kinetics of SIRT3 with various compounds were quantified using SSA biosensors on an Octet Red96 system (ForteBio). The assays occurred in 96-well plates, recording wavelength shifts in real-time. Ambient temperature was maintained at 25 °C, with plate agitation at 1000 rpm, and a reaction volume of 200 μL per well. SIRT3 protein and test compounds were prepared in phosphate-buffered saline (PBS, pH 7.4). Biosensors were equilibrated in PBS for 10 min before immobilizing SIRT3 (0.9 μg/mL) for 180 s, followed by a 120-s PBS wash. […] Data analysis was performed using ForteBio’s Octet RED software.

H9c2 cells [1] = test: OGD/R injury model in vitro; type: cell-based; settings: pretreatment for 24 h, 10 μM
Description: An in vitro oxygen-glucose deprivation (OGD) injury model was established as described in a previous study. OGD injury was induced by incubating cells in glucose-free DMEM under hypoxic conditions (94% N2, 1% O2, and 5% CO2) for 6 h. Before the hypoxic phase, cells were treated with SKLB-11A (10 μM). The cells were then incubated in normoxic conditions with normal medium at 37 °C for the indicated time of 24 h as reperfusion. Untreated cells were used as controls.

SIRT3 = target: T3, SIRT3 (Homo sapiens, UniProt Q9NTG7); test: Coupled enzymatic assay, acetylated MnSOD-K122 substrate; type: biochemical; settings: 100 μM
T3 construct: purchased Enzo Life Sciences BML-AK557-0001
T3 sequence (Q9NTG7 1-399): T1 sequence (Q9NTG7 1-399 L298G) with G298L
Text: Additionally, we used surface plasmon resonance (SPR) to measure the binding of SKLB-11A to immobilized SIRT3. […] We next evaluated the selectivity of SKLB-11A for different SIRT family members. […] We next examined the functional specificity of SKLB-11A using coupled enzymatic assays with isoform-specific, physiologically relevant substrates: acetylated p53-K381 for SIRT1, acetylated α-tubulin-K25 for SIRT2, acetylated MnSOD-K122 for SIRT3, and succinylated CPS1-K537 for SIRT5 (Supplementary Table S3). […] Using Schrödinger molecular docking simulations, we assessed the binding interactions of SKLB-11A with SIRT isoforms.

H9c2 cells [2] = test: ATP content in Dox-treated H9c2 cells; type: cell-based; settings: 10 μM
Description: ATP concentrations were detected by a firefly luciferin/luciferase-based ATP bioluminescence assay kit (Beyotime, China). The ATP contents were determined as nmol/mg protein by using SYNERGY 4 Microplate Reader (BioTek Instruments).

**Q.** How did the pKd (SIRT3 L298G mutant) turn out when `COC(=O)c1c(N)n(Cc2ccc(F)cc2)c2nc3ccccc3nc12` [SKLB-11A, Methyl 2-amino-1-(4-fluorobenzyl)-1H-pyrrolo[2,3-b]quinoxaline-3-carboxylate] was run?
**A.** Its pKd is 3.78.

**Q.** What about the pKd (wild-type SIRT3) of the same compound?
**A.** Its pKd is 4.48.

**Q.** What about the OGD/R-induced mitochondrial dysfunction (H9c2 cells [1]) of the same compound?
**A.** The OGD/R-induced mitochondrial dysfunction was “significantly ameliorated”.

**Q.** What about the “effect on SIRT3 deacetylation activity” value (SIRT3) of the same compound?
**A.** Its value is “pronounced activation”.

**Q.** What about the ATP levels (H9c2 cells [2]) of the same compound?
**A.** Its ATP levels is “capable of increasing ATP levels”.
